Earlier results, collected in patent publication US11407830B2, “Methods of treating cancer with anti-PD-1 antibodies” (TESARO, INC., priority 2017, dated 2022).

What was measured:
[1] = test system: PARP activity in various cell lines
[2] = test system: non-small-cell lung cancer, melanoma, and renal-cell cancer; details: Phase I clinical trial

NC(=O)c1cccc2cn(-c3ccc([C@@H]4CCCNC4)cc3)nc12 [Niraparib, (3 S)-3-[4-{7-(aminocarbonyl)-2H-indazol-2-yl}phenyl]piperidine]
IC50 ([1]; read-out: IC50, PARP activity in cells, hydrogen peroxide DNA damage): ~4 nM
IC90 ([1]; read-out: inhibitory concentration at 90% of control (IC90), PARP activity in cells, hydrogen peroxide DNA damage): ~50 nM

nivolumab: monoclonal antibody targeting PD-1
tumor response [2]: complete or partial responses
